Where no end group is shown, it is not given here.
Experiments:
STZ-treated mouse islets [1] = experiment: Insulin secretion from STZ-treated mouse islets; type: cell-based; conditions: islets treated with 2.5 mM STZ; 48 hours after treatment; IGF-2 50 nM and 500 nM, GLP-1 100 nM and 1000 nM
Method: Mouse islet cells were treated with 2.5 mM STZ and subsequently treated with either IGF-2 (FA) at 50 nM and 500 nM, or with GLP-1 at 100 nM and 1000 nM.

β-MIN6 cells = experiment: Insulin secretion of β-MIN6 cells following glucose induction; type: cell-based, mouse; conditions: 1 week treatment; IGF-2 5 nM, 20 nM, 80 nM
Excerpt: β-MIN6 cells serve as an in vitro model of mouse pancreatic islets. β-MIN6 cells were used as an in vitro model to measure the effects of treatment with IGF-2.

STZ-treated mouse islets [2] = experiment: MTT viability of STZ-treated mouse islets; type: cell-based; conditions: increasing concentrations
Excerpt: Yellow dye MTT is converted to a purple dye by mitochondrial reductase in viable cells. Therefore, the amount of purple dye present determined by measuring optical density of cells at 570 nm serves as a measurement of cell viability.

mice = experiment: Blood glucose concentration kinetics of IGF-2 vs. insulin in a glucose tolerance test; type: in vivo, mouse; conditions: insulin 1 unit per kg, IGF-2 800 μg/kg
Excerpt: IGF-2 therefore provides an effect that mimics insulin within the body, and that effect is referred to herein as an “insulinomimetic” effect. […] In this example, administering IGF-2 can provide better results than administering insulin with respect to blood glucose levels, even when only a single dose was used. Without being bound by this theory, it is possible that the IGF-2 combines with a number of binding proteins in the blood and its active free form is then released slowly from the complex.

Substance | insulin secretion (STZ-treated mouse islets [1]) | insulin secretion following glucose induction (β-MIN6 cells) | mouse islet viability (MTT, optical density at 570 nm) (STZ-treated mouse islets [2]) | glucose level after administration (mice; glucose tolerance test in mice) | time after which the recovery in glucose levels began (mice; single dose)
GLP-1 (HAEGTFTSDVSSYLEGQAAKEFIAWLVKGR; ends and bridges not checked; UniProt P01275 98-127, looked up) [a satiety hormone, comparator in vitro, reference compound] | did not significantly increase insulin secretion | does not increase insulin secretion | did not significantly increase mouse islet viability |  | 
insulin [reference compound] |  |  |  | the glucose level decreased | after two hours

From patent US12447198B2, “Peptides and fragments for treating diabetes and associated metabolic diseases” (Betavive Ltd., priority 2021, dated 2025)
